# Experimental data published in ChEMBL document CHEMBL4414630, “Cyclobutastellettolides A and B, C19 Norterpenoids from a Stelletta sp. Marine Sponge” (J Nat Prod, 2019).
# Columns and labels:
# N2a = assay: Cytotoxicity against mouse Neuro2a cells assessed as inhibition of cell viability incubated for 24 hrs by MTT assay; assay type: cell-based
# HT-29 = assay: Cytotoxicity against human HT-29 cells assessed as inhibition of cell viability incubated for 24 hrs by MTS assay; assay type: cell-based; conditions: HT-29, 24 h
# Peritoneal macrophage [1] = assay: Induction of ROS generation in BALB/c mouse peritoneal macrophages at 1 uM incubated for 1 hr by H2DCF-DA staining based fluorescence analysis relative to control; assay type: functional
# DLD-1 = assay: Cytotoxicity against human DLD1 cells assessed as inhibition of cell viability incubated for 24 hrs by MTS assay; assay type: cell-based; conditions: DLD-1, 24 h
# Peritoneal macrophage [2] = assay: Induction of ROS generation in BALB/c mouse peritoneal macrophages at 10 uM incubated for 1 hr by H2DCF-DA staining based fluorescence analysis relative to control; assay type: functional
SMILES,IC50 (N2a) [µM],IC50 (HT-29) [µM],Activity (Peritoneal macrophage [1]) [%],IC50 (DLD-1) [µM],Activity (Peritoneal macrophage [2]) [%]
CC1(C)C(=O)CC[C@@]2(C)[C@H]1CC[C@]1(C)C(=O)[C@@]3(C)OC(=O)C[C@@]213,> 40,> 40,55,> 40,93
CC(=O)O[C@H]1CC[C@@]2(C)[C@@H](CC[C@]3(C)C(=O)[C@@]4(C)OC(=O)C[C@@]234)C1(C)C,> 40,> 40,73,> 40,90
